Here are results for 68 compounds from ChEMBL document CHEMBL1142400, “An updated steroid benchmark set and its application in the discovery of novel nanomolar ligands of sex hormone-binding globulin” (J Med Chem, 2008).

Usually Kd stands for the concentration at which binding is half-saturated. Low values mean tighter binding, high ones weaker binding.

In this assay the target is T1, Sex hormone-binding globulin (Homo sapiens, UniProt P04278).
T1 sequence (P04278 whole entry): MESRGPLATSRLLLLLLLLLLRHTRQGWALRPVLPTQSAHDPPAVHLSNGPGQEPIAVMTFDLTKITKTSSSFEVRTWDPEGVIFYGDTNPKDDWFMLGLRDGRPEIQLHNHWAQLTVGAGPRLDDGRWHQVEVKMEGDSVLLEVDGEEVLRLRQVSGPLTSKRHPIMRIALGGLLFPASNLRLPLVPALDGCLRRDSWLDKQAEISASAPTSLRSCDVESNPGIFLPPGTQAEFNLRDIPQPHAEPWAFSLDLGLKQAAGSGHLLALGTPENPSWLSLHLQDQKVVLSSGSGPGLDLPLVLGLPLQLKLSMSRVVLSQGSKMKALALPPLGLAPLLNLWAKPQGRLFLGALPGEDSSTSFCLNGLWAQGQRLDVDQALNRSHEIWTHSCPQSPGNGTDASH
Description: Displacement of [3H]5alpha dihydrotestosterone from human sex hormone binding globulin. For orientation: Loss of bound radioactivity is the signal in a displacement assay; it reports binding, not function.
Take `C[C@]12CC[C@H]3C(=CCc4cc(O)ccc43)[C@@H]1CC[C@@H]2O`: the Kd is 2.4 nM.
In the case of `C[C@]12CC[C@@H]3c4ccc(O)cc4C=C[C@H]3[C@@H]1CC[C@@H]2O` it was 1.74 nM; in that of `C[C@]12CC[C@H]3[C@@H](CC=C4C[C@@H](O)CC[C@@H]43)[C@@H]1CC[C@@H]2O`, 0.288 nM.
`CC1(C)CC2=C3C=C[C@@]4(C)[C@@H](CC[C@]4(C)O)[C@@H]3CCC2=CC1=O` gave a Kd of 138 nM.
`CC(C)(C)CC(C)(C)c1ccc(O)cc1` had a Kd of 2140 nM. Compared with the last compound, the Kd is about 16-fold higher.
In the case of `COc1cc(/C=N/CCc2ccccc2)ccc1O` it was 589 nM.
`CCc1cc(C(=O)Cc2ccccc2C)c(O)cc1O` had a Kd of 107 nM.
Take `C[C@@H]1CC2=CC(=O)CC[C@]2(C)[C@@]2(F)CC[C@]3(C)[C@@H](O)CC[C@H]3[C@H]12`: the Kd is 3.09 nM.
`C#C[C@]1(O)CC[C@H]2[C@@H]3CCC4=C[C@H](O)CC[C@]4(C)C3C(=C)C[C@@]21CC` (stereo partly drawn): binding was characterised by a dissociation constant (Kd) of 21.4 nM. This Kd is about 6.9-fold higher than that of the compound before.
`Cc1c(Cc2ccccc2)c(=O)oc2c(C)c(O)ccc12` gave a Kd of 2190 nM.
On to `C#C[C@]1(O)CC[C@H]2[C@@H]3CC[C@H]4CC(=O)CC[C@]4(C)[C@H]3CC[C@@]21C`, for which the affinity, expressed as Kd, was 0.182 nM.
As to `C[C@]12CC[C@H]3[C@@H](CC[C@H]4CC(=O)C[C@H](CCCCCCN)[C@@]43C)[C@@H]1CC[C@@H]2O`, the affinity, expressed as Kd, was 29.5 nM.
`C[C@@H]1CC2=CC(=O)C=C[C@]2(C)[C@H]2CC[C@]3(C)[C@@H](O)CC[C@H]3[C@H]12` gave a Kd of 4.37 nM.
`C[C@H]1C[C@H]2[C@@H]3CC[C@H](O)[C@@]3(C)CC[C@@H]2[C@@]2(C)CCC(=O)C=C12` gave a Kd of 4.37 nM.
Compound `C[C@]12CC[C@H]3[C@@H](CCC4CC(=O)CC[C@@H]43)[C@@H]1CC[C@@H]2O` (stereo partly drawn) had a Kd of 4.37 nM.
Turning to `C[C@@H]1C=C2CC(O)CC[C@]2(C)[C@H]2CC[C@@]3(C)[C@@H](CC[C@]3(C)O)[C@H]12` (stereo partly drawn), the Kd was 363 nM.
As to `C[C@@H]1CC2=CC(=O)CC[C@@H]2[C@H]2CC[C@@]3(C)C(=CC[C@@H]3O)[C@@H]21`, the Kd is 0.851 nM.
In the case of `C[C@@]12CCC[C@H]1[C@@H]1CCc3cc(O)ccc3[C@H]1CC2` it was 5.01 nM; in that of `C#C[C@]1(O)CC[C@H]2[C@H]3[C@H](C(=C)C[C@@]21CC)[C@H]1CC[C@@H](O)C[C@@H]1C[C@H]3C`, 5.37 nM.
The compound `C[C@@H]1C[C@H]2C[C@@H](O)CC[C@]2(C)[C@H]2CC[C@]3(C)[C@@H](O)CC[C@H]3[C@H]12` showed a Kd of 1 nM. Against the preceding compound, the Kd is about 5.4-fold lower.
For the compound `C[C@@H]1C[C@H]2CC(=O)CC[C@]2(C)[C@H]2CC[C@@]3(C)[C@@H](CC[C@]3(C)O)[C@H]12`, binding was put at a Kd of 0.891 nM. The Kd values of the last two compounds are within 1.5-fold of each other.
Regarding `C[C@]12CCC(=O)C[C@@H]1CC[C@@H]1[C@@H]2[C@@H](O)C[C@@]2(C)[C@H]1CC[C@@]2(O)CCCN`, the Kd was 11000 nM. This Kd lies about 12000-fold higher than the previous one.
The compound `CC1=C2CC[C@H]3[C@@H]4CC[C@H](O)[C@@]4(C)CC[C@@H]3[C@@]2(C)CCC1=O` showed a Kd of 0.49 nM.
`C[C@]12CC[C@@H]3c4cc(I)c(O)cc4CC[C@H]3[C@@H]1CC[C@@H]2O`: the Kd is 0.479 nM.
In the case of `Cc1c(O)ccc(C(=O)Cc2ccccc2Cl)c1O`, the Kd is 2190 nM.
In the case of `Oc1ccc(-c2cc3ccc(O)cc3o2)cc1`, the Kd was 832 nM. This Kd is about 2.6-fold lower than that of the compound before.
Next, `C[C@@H]1CC2=CC(=O)C=C[C@]2(C)[C@H]2CC[C@@]3(C)[C@@H](CC[C@]3(C)O)[C@H]12`: 2.69 nM; `C[C@@H]1CC2=CC(=O)CC[C@]2(C)[C@H]2CC[C@]3(C)[C@@H](O)CC[C@H]3[C@H]12`: 1.95 nM; `C[C@]1(O)CC[C@H]2[C@@H]3CCC4=CC(=O)CC[C@]4(C)[C@@]3(F)C(=O)C[C@@]21C`: 5.89 nM.
`COc1cc(C(=O)OC2CC3CCC2(C)C3(C)I)ccc1O` (stereo not drawn) showed a Kd of 407 nM.
Turning to `CC[C@H](C1CCC(O)CC1)[C@@H](CC)C1CCC(O)CC1` (stereo partly drawn), the Kd was 28800 nM.
`CC(=O)[C@@]1(O)CC[C@H]2[C@@H]3CC=C4C[C@@H](O)CC[C@]4(C)[C@H]3CC[C@@]21C` gave a Kd of 437 nM.
In the case of `C[C@]12CCC(=O)C[C@@H]1[C@@H](F)C[C@@H]1[C@@H]2CC[C@]2(C)[C@@H](O)CC[C@@H]12` it was 0.891 nM; in that of `CC[C@H](C1CCCCC1)[C@@H](CC)C1CCCCC1`, 2450 nM; in that of `C#C[C@]1(O)CC[C@H]2[C@@H]3CC[C@H]4CC(=O)CC[C@@H]4[C@H]3C(=C)C[C@@]21CC`, 1.58 nM.
In turn, `C[C@]12CCC3=C4CCC(=O)C=C4C=C[C@H]3[C@@H]1CC[C@@H]2O` showed a Kd of 1150 nM.
Next, `C#C[C@]1(O)CC[C@H]2[C@@H]3CCC4=C[C@@H](O)CC[C@]4(C)C3C(=C)C[C@@]21CC` (stereo partly drawn): 13.2 nM; `CC1(O)CC[C@H]2[C@@H]3CC=C4CC(O)CC[C@]4(C)[C@H]3CC[C@@]21C` (stereo partly drawn): 4.37 nM; `C#C[C@]1(O)CC[C@H]2[C@@H]3[C@H](C)C=C4CC(O)CC[C@]4(C)[C@H]3CC[C@@]21C` (stereo partly drawn): 363 nM.
As for `C#C[C@]1(O)CC[C@H]2[C@@H]3CC=C4C[C@@H](O)CC[C@]4(C)[C@H]3CC[C@@]21C`, binding was characterised by a dissociation constant (Kd) of 1.23 nM.
On to `C[C@@H]1C[C@H]2CC(=O)CC[C@]2(C)[C@H]2CC[C@]3(C)[C@@H](O)CC[C@H]3[C@H]12`, for which the affinity, expressed as Kd, was 0.417 nM.
In turn, `C[C@]12CC[C@H]3[C@@H](CCC4=CC(=O)CC[C@@]43C)[C@@H]1C[C@@H](O)[C@@H]2O` showed a Kd of 12 nM. This Kd lies about 29-fold higher than the previous one.
On to `C#C[C@]1(O)CC[C@H]2[C@@H]3CC[C@H]4CC(F)(F)CC[C@]4(C)[C@H]3CC[C@@]21C`, for which the Kd is 4.37 nM.
As to `C[C@@H]1CC2CC(=O)CC[C@@H]2[C@H]2CC[C@]3(C)[C@@H](O)CC[C@H]3[C@@H]21` (stereo partly drawn), binding was characterised by a dissociation constant (Kd) of 3.47 nM. The Kd values of the last two compounds are within 1.5-fold of each other.
Next, `C[C@@H]1C[C@H]2C[C@@H](O)CC[C@]2(C)[C@H]2CC[C@@]3(C)[C@@H](CC[C@]3(C)O)[C@H]12`: 3.47 nM; `O=C1C[C@@H](c2ccc(O)cc2)Oc2cc(O)cc(O)c21` (stereo in doubt; 82) [NARINGENIN]: 28200 nM; `O=C1C[C@@H](c2ccc(O)cc2)Oc2cc(O)cc(O)c21` (stereo in doubt; 90) [NARINGENIN]: 955 nM.
`COc1cc2c(cc1O)CC[C@@H]1[C@@H]2CC[C@]2(C)[C@@H](O)CC[C@@H]12` [2-METHOXYESTRADIOL] gave a Kd of 0.832 nM. This Kd is about 1100-fold lower than that of the compound before.
The compound `CCCCCCCCCc1ccc(O)cc1` [4-NONYLPHENOL] had a Kd of 1200 nM.
Turning to `C[C@]12CCC(=O)C=C1CC[C@@H]1[C@@H]2[C@@H](O)C[C@]2(C=O)[C@@H](C(=O)CO)CC[C@@H]12` [ALDOSTERONE], binding was characterised by a dissociation constant (Kd) of 4790 nM.
`C[C@]12CC[C@@H](O)C[C@@H]1CC[C@@H]1[C@@H]2CC[C@]2(C)[C@@H](O)CC[C@@H]12` [ANDROSTANDIOL]: the dissociation constant (Kd) was 0.776 nM. Against the preceding compound, the Kd is about 6200-fold lower.
Next, `C[C@]12CCC(=O)C=C1CC[C@@H]1[C@@H]2CC[C@]2(C)C(=O)CC[C@@H]12` [ANDROSTENEDIONE]: 34.7 nM; `C[C@]12CC[C@@H](O)C[C@@H]1CC[C@@H]1[C@@H]2CC[C@]2(C)C(=O)CC[C@@H]12` [ANDROSTERONE]: 70.8 nM.
Compound `C[C@@H]1CC2=CC(=O)CC[C@]2(C)[C@H]2CC[C@@]3(C)[C@@H](CC[C@]3(C)O)[C@H]12` [BOLASTERONE] showed a Kd of 1.74 nM.
In the case of `C[C@]12C[C@H](O)[C@H]3[C@@H](CCC4=CC(=O)CC[C@@]43C)[C@@H]1CC[C@@H]2C(=O)CO` [CORTICOSTERONE] it was 457 nM; in that of `C[C@]12CCC(=O)C=C1CC[C@@H]1[C@@H]2C(=O)C[C@@]2(C)[C@H]1CC[C@]2(O)C(=O)CO` [CORTISONE], 372 nM.
As to `C[C@]12CCC(=O)C=C1CC[C@@H]1[C@@H]2CC[C@@]2(C)[C@H]1CC[C@]2(O)C(=O)CO` [CORTODOXONE], the affinity, expressed as Kd, was 36.3 nM.
For `C#C[C@]1(O)CC[C@H]2[C@@H]3CCC4=Cc5oncc5C[C@]4(C)[C@H]3CC[C@@]21C` [DANAZOL], the Kd is 6.31 nM.
The compound `C#C[C@]1(O)CC[C@H]2[C@@H]3CCC4=CCCC[C@@H]4[C@H]3C(=C)C[C@@]21CC` [DESOGESTREL] showed a Kd of 251 nM. This Kd is about 40-fold higher than that of the compound before.
On to `C[C@]12CC[C@H]3[C@@H](CCC4=CC(=O)CC[C@@]43C)[C@@H]1CC[C@@H]2C(=O)CO` [DESOXYCORTICOSTERONE], for which the Kd is 41.7 nM.
In turn, `C[C@]12CCc3c(ccc4cc(O)ccc34)[C@@H]1CCC2=O` [EQUILENIN] had a Kd of 2.4 nM.
`C[C@]12CC[C@H]3C(=CCc4cc(O)ccc43)[C@@H]1CCC2=O` [EQUILIN]: the Kd was 3.09 nM. The Kd values of the last two compounds are within 1.5-fold of each other.
Next, `C[C@]12CC[C@@H]3c4ccc(OC(=O)c5ccccc5)cc4CC[C@H]3[C@@H]1CC[C@@H]2O` [ESTRADIOL BENZOATE]: 1150 nM; `C[C@]12CC[C@@H]3c4ccc(O)cc4CC[C@H]3[C@@H]1C[C@@H](O)[C@@H]2O` [ESTRIOL]: 234 nM; `C[C@]12CC[C@@H]3c4ccc(O)cc4CC[C@H]3[C@@H]1CCC2=O` [ESTRONE]: 6.61 nM.
In turn, `C#C[C@]1(O)CC[C@H]2[C@@H]3CCc4cc(O)ccc4[C@H]3CC[C@@]21C` [ETHINYL ESTRADIOL] gave a Kd of 155 nM.
For the compound `C#C[C@]1(O)CC[C@H]2[C@@H]3CCC4=CC(=O)CC[C@]4(C)[C@H]3CC[C@@]21C` [ETHISTERONE], the Kd is 1.66 nM.
Compound `C[C@]12CC[C@@H](O)C[C@H]1CC[C@@H]1[C@@H]2CC[C@]2(C)C(=O)CC[C@@H]12` [ETIOCHOLANOLONE] had a Kd of 708 nM.
